Assay results published in publication PMC4106271 (Journal of Medicinal Chemistry, 2014).

Columns and labels:
male C57BL/6N mice [1] = assay: Open field test; type: in vivo; settings: ip, total ambulation
Procedure: (§1) Male mice (C57BL/6N) were obtained from Charles River Laboratories (Sulzfeld, Germany). For maintenance, mice were group-housed (maximum five mice per type IIL cage) with free access to food and water. At least 24 h before the commencement of experiments, mice were transferred to the testing facility, where they were given free access to food and water. The temperature in the maintenance and testing facilities was 23 ± 1 °C; the humidity was 40–60%; a 12 h light–dark cycle was in operation (lights on from 07:00 to 19:00). Only male mice aged 3–6 months were tested.
(§2) Compounds were applied by intraperitoneal (ip) injection 30 min before each test. Testing solutions were prepared in a solvent composed of 0.9% NaCl solution with 10% dimethyl sulfoxide (DMSO) and 3% Tween 80. […] All doses are indicated as milligrams per kilogram of body weight of the animal.
Ambulation was tested over 10 min in a 50 × 50 cm flexfield box equipped with infrared rearing detection. Illumination was set to 150 Lux. The animals’ explorative behavior was analyzed by use of the ActiMot 2 equipment and software (TSE-systems, Bad Homburg, Germany). Arenas were subdivided into border (up to 8 cm from wall), center (20 × 20 cm, 16% of total area), and intermediate area according to the recommendations of EMPRESS (European Mouse Phenotyping Resource of Standardised Screens; http://empress.har.mrc.ac.uk).

α1β1γ2S GABAA receptors = target: T1, α1β1γ2S GABAA receptors (Homo sapiens, UniProt P14867+P18505); assay: Two-microelectrode voltage clamp, IGABA modulation, α1β1γ2S; type: cell-based; settings: for nH: Hill coefficient
T1 construct: expressed in transfected cells; host or cells: Xenopus laevis oocytes injected with cRNA (pCMV cDNA templates)
T1 sequence (P14867 28-456): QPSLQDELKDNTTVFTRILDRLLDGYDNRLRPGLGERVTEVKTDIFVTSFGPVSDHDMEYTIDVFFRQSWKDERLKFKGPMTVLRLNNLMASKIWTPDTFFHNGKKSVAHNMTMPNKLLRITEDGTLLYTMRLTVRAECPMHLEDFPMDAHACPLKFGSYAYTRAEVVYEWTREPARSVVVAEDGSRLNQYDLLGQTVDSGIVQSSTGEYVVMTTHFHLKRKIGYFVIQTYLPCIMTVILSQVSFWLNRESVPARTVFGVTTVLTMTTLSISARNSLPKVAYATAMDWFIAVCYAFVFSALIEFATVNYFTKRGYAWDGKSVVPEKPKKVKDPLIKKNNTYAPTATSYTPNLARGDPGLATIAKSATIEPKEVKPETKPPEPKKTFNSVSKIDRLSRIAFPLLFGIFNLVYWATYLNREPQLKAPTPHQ
T1 sequence (P18505 26-474): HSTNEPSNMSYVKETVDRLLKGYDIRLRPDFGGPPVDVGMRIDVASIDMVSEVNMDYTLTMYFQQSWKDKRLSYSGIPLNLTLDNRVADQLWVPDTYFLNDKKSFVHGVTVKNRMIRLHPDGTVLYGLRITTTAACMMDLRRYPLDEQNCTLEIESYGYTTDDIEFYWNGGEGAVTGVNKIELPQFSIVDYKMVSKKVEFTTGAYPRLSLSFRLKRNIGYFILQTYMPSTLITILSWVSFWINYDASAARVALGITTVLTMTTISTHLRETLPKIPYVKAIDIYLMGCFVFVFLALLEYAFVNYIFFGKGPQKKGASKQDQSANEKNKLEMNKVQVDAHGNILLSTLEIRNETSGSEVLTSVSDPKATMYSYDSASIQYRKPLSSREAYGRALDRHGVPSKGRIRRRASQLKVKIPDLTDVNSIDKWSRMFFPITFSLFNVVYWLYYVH
T1 sequence (P18507 40-467 isoform P18507-1 partner limits assumed): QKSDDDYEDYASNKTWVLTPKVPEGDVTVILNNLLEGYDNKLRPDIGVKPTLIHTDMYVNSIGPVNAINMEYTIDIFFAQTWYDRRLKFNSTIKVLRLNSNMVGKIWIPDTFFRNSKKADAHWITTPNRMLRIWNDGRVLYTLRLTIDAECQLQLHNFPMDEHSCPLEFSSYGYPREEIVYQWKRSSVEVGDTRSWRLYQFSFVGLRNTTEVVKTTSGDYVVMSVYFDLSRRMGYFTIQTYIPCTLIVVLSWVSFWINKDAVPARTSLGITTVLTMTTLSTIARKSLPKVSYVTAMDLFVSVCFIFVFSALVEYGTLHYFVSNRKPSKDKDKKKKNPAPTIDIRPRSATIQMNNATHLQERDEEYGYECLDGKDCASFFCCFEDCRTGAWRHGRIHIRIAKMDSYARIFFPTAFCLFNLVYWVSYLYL
Procedure: (§3) Preparation of stage V–VI oocytes from X. laevis and synthesis of capped runoff poly(A) cRNA transcripts from linearized cDNA templates (pCMV vector) was performed as previously described.[49] […] Follicle membranes from isolated oocytes were enzymatically digested with 2 mg/mL collagenase (type 1A, Sigma–Aldrich, Vienna, Austria).
(§4) Selected oocytes were injected with 10–50 nL of DEPC-treated water (diethyl pyrocarbonate, Sigma, Vienna, Austria) containing the different GABAA cRNAs at a concentration of approximately 300–3000 pg·nL^–1·subunit^–1.
(§5) To ensure expression of the γ2S subunit in the case of α1/2/3/5β2/3γ2S receptors, cRNAs were mixed in a ratio of 1:1:10. […] The amount of cRNAs was determined by means of a NanoDrop ND-1000 (Kisker-Biotech, Steinfurt, Germany).
(§6) Oocytes were stored at +18 °C in modified ND96 solution (90 mM NaCl, 1 mM CaCl2, 1 mM KCl, 1 mM MgCl2·6H2O, and 5 mM HEPES [4-(2-hydroxyethyl)-1-piperazineethanesulfonic acid], pH 7.4, all from Sigma–Aldrich, Vienna, Austria).
(§7) Chloride currents through GABAA receptors (IGABA) were measured at room temperature (+21 ± 1 °C) by means of a two-microelectrode voltage clamp technique making use of a Turbo TEC-05X amplifier (npi electronic, Tamm, Germany). IGABA were elicited at a holding potential of –70 mV. Data acquisition was carried out by means of an Axon Digidata 1322A interface using pCLAMP v.10 (Molecular Devices, Sunnyvale, CA). The modified ND96 solution was used as bath solution.
(§8) GABA and the studied derivatives were applied by means of the ScreeningTool (npi electronic, Tamm, Germany) fast perfusion system as described previously.[50] To elicit IGABA, the chamber was perfused with 120 μL of GABA- or compound-containing solution at a volume rate of 300 μL/s.[34] Care was taken to account for possible slow recovery from increasing levels of desensitization in the presence of high drug concentrations. The duration of washout periods was therefore extended from 1.5 min (<10 μM compounds) to 30 min (≥10 μM compounds). Oocytes with maximal current amplitudes >3 μA were discarded to exclude voltage clamp errors.
(§9) Stimulation of chloride currents by modulators of the GABAA receptor was measured at a GABA concentration eliciting between 3% and 7% of the maximal current amplitude (EC3–7). The GABA EC3–7 was determined for each oocyte individually. Enhancement of the chloride current was defined as (IGABA+compd/IGABA) – 1, where IGABA+compd is the current response in the presence of a given compound and IGABA is the control GABA current. IGABA-max reflects the maximal IGABA enhancement. […] Statistical significance was calculated by paired Student t-test with a confidence interval of <0.05.

α2β2γ2S GABAA receptors = target: T2, α2β2γ2S GABAA receptors (Homo sapiens, UniProt P47869+P47870); assay: Two-microelectrode voltage clamp, IGABA modulation, α2β2γ2S; type: cell-based; settings: for nH: Hill coefficient
T2 construct: expressed in transfected cells; host or cells: Xenopus laevis oocytes injected with cRNA (pCMV cDNA templates)
T2 sequence (P47869 29-451): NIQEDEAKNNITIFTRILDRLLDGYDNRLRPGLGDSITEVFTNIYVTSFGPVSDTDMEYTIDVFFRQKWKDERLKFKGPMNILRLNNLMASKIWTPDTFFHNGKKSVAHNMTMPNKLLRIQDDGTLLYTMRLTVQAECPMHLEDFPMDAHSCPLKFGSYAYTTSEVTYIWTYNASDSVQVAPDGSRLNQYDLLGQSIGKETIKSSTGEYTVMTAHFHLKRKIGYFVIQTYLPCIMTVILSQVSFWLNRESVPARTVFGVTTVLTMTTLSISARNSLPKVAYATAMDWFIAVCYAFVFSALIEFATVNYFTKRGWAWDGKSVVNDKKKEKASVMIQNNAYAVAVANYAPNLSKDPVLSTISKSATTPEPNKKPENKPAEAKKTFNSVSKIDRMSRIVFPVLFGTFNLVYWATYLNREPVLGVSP
T2 sequence (P47870 26-512): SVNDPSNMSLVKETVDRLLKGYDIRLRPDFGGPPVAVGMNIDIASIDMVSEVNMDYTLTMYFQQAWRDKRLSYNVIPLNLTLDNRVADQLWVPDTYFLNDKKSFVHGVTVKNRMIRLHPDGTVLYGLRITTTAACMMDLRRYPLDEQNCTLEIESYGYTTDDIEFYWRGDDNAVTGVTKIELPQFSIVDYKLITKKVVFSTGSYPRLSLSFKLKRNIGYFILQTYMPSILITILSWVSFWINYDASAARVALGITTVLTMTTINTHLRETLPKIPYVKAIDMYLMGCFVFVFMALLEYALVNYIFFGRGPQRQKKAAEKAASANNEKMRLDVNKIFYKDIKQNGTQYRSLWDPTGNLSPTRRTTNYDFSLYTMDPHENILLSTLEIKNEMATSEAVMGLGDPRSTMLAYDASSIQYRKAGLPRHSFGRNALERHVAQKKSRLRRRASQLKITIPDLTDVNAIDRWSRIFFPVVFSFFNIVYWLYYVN
T2 sequence (P18507 40-467 isoform P18507-1 partner limits assumed): as the sequence (P18507 40-467 isoform P18507-1 partner limits assumed) above
Procedure: as §3, §4, §5, §6, §7, §8, §9

male C57BL/6N mice [2] = assay: Elevated plus maze test; type: in vivo; settings: for time spent in open arms (OA) as percentage of total time: 30 min after application, EPM; for effect in the EPM test: ip, 30 min before test
Procedure: as §1, §2
The animals’ behavior was tested over 5 min on an elevated plus maze 1 m above ground consisting of two closed and two open arms, each 50 × 5 cm in size. The test instrument was built from gray PVC; the height of closed arm walls was 20 cm. Illumination was set to 180 Lux. Animals were placed in the center, facing an open arm. Analysis of open and closed arm entries and time on open arm was automatically done with Video-Mot 2 equipment and software (TSE Systems, Bad Homburg, Germany).[34]

TRPV1 = target: T3, TRPV1 (Homo sapiens, UniProt Q8NER1); assay: TRPV1 activation in Xenopus oocytes; type: cell-based; settings: 100 μM, data not shown
T3 construct: expressed in transfected cells; host or cells: Xenopus laevis oocytes
T3 sequence (Q8NER1 whole entry, species assumed): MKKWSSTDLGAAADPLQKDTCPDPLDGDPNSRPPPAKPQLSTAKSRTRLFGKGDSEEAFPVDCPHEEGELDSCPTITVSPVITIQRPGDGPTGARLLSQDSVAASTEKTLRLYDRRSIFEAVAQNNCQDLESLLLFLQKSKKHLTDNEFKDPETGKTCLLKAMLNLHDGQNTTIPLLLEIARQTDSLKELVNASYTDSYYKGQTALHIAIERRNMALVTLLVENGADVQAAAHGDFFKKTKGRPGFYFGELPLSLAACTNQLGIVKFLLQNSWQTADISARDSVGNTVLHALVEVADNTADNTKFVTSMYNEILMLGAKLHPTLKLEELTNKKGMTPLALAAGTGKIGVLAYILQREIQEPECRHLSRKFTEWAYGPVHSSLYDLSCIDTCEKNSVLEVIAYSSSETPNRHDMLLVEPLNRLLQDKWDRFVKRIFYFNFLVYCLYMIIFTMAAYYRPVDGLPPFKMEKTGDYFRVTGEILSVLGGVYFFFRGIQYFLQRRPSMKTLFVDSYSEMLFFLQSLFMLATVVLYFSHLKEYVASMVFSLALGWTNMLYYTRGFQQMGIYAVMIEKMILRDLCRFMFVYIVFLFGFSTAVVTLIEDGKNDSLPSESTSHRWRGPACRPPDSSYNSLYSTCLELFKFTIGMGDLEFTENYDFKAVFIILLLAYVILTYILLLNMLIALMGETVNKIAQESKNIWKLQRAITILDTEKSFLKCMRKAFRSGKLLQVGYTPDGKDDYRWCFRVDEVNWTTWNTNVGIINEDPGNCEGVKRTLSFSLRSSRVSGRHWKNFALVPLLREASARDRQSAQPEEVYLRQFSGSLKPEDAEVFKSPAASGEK
From the text: (for review see ref ([47])). In order to rule out potential activation of TRPV1, selected compounds were studied in X. laevis oocytes for interaction with TRPV1 prior to in vivo characterization. […] Both compounds were further characterized concerning their anxiolytic activity (see also ref ([34])).

α1β2γ2S GABAA receptors = target: T4, α1β2γ2S GABAA receptors (Homo sapiens, UniProt P14867+P47870); assay: Two-microelectrode voltage clamp, IGABA modulation, α1β2γ2S; type: cell-based; settings: for nH: Hill coefficient of concentration–response curve; for EC50: IGABA enhancement, GABA EC3–7, Xenopus oocytes
T4 construct: expressed in transfected cells; host or cells: Xenopus laevis oocytes injected with cRNA (pCMV cDNA templates)
T4 sequence (P14867 28-456): as the sequence (P14867 28-456) above
T4 sequence (P47870 26-512): as the sequence (P47870 26-512) above
T4 sequence (P18507 40-467 isoform P18507-1 partner limits assumed): as the sequence (P18507 40-467 isoform P18507-1 partner limits assumed) above
Procedure: as §3, §4, §5, §6, §7, §8
as §9, with “enhancement. Concentration–response curves were generated and the data were fitted by nonlinear regression analysis using Origin Software (OriginLab Corp.). Data were fitted to the equation 1/(1 + (EC50/[compound])^nH), where nH is the Hill coefficient.” for “enhancement.”

α5β2γ2S GABAA receptors = target: T5, α5β2γ2S GABAA receptors (Homo sapiens, UniProt P31644+P47870); assay: Two-microelectrode voltage clamp, IGABA modulation, α5β2γ2S; type: cell-based; settings: for nH: Hill coefficient
T5 construct: expressed in transfected cells; host or cells: Xenopus laevis oocytes injected with cRNA (pCMV cDNA templates)
T5 sequence (P31644 32-462): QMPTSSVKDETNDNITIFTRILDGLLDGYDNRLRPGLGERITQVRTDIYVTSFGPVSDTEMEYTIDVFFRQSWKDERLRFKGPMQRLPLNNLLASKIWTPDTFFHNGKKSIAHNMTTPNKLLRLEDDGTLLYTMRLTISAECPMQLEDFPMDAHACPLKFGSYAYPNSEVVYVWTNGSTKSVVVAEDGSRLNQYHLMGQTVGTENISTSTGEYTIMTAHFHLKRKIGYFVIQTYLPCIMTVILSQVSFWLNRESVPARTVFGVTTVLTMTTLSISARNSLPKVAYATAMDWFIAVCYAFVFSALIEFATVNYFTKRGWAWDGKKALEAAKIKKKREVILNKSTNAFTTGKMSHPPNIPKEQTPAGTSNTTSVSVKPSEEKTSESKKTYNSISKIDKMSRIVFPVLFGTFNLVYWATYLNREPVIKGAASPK
T5 sequence (P47870 26-512): as the sequence (P47870 26-512) above
T5 sequence (P18507 40-467 isoform P18507-1 partner limits assumed): as the sequence (P18507 40-467 isoform P18507-1 partner limits assumed) above
Procedure: as §3, §4, §5, §6, §7, §8, §9

α3β2γ2S GABAA receptors = target: T6, α3β2γ2S GABAA receptors (Homo sapiens, UniProt P34903+P47870); assay: Two-microelectrode voltage clamp, IGABA modulation, α3β2γ2S; type: cell-based; settings: for nH: Hill coefficient
T6 construct: expressed in transfected cells; host or cells: Xenopus laevis oocytes injected with cRNA (pCMV cDNA templates)
T6 sequence (P34903 29-492): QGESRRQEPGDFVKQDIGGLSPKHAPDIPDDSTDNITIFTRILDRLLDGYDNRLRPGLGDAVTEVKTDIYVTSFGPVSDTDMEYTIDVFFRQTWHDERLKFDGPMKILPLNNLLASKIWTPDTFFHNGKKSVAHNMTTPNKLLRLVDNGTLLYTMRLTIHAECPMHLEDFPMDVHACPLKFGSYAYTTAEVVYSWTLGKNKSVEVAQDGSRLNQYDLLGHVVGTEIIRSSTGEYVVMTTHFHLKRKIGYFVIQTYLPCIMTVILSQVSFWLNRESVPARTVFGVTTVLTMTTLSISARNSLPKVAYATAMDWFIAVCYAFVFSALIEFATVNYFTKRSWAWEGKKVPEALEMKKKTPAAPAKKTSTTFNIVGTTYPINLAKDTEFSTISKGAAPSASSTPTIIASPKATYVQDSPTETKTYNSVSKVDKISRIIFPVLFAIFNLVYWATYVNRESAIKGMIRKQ
T6 sequence (P47870 26-512): as the sequence (P47870 26-512) above
T6 sequence (P18507 40-467 isoform P18507-1 partner limits assumed): as the sequence (P18507 40-467 isoform P18507-1 partner limits assumed) above
Procedure: as §3, §4, §5, §6, §7, §8, §9

Row | Compound | sedation in the OF test (male C57BL/6N mice [1]) | EC50 (α1β1γ2S GABAA receptors) [µM] | nH (α1β1γ2S GABAA receptors) | EC50 (α2β2γ2S GABAA receptors) [µM] | nH (α2β2γ2S GABAA receptors) | time spent in open arms (OA) as percentage of total time (male C57BL/6N mice [2]; 0.3 mg/kg ip) | effect in the EPM test (male C57BL/6N mice [2]) | activation of TRPV1 (TRPV1) | nH (α1β2γ2S GABAA receptors) | EC50 (α1β2γ2S GABAA receptors) [µM] | EC50 (α5β2γ2S GABAA receptors) [µM] | nH (α5β2γ2S GABAA receptors) | EC50 (α3β2γ2S GABAA receptors) [µM] | nH (α3β2γ2S GABAA receptors) | time spent in open arms (OA) as percentage of total time (male C57BL/6N mice [2]; 3 mg/kg ip)
1 | CCCN(CCC)C(=O)/C=C/C=C/c1ccc2c(c1)OCO2 [Compound 23, (2E,4E)-5-(1,3-benzodioxol-5-yl)-N,N-dipropyl-2,4-pentadienamide] | little sedation | 57.5 ± 7.3 | 1.8 ± 0.1 | 26.4 ± 6.6 | 1.9 ± 0.4 | 45.6% ± 3.2% | anxiolytic effects | did not activate TRPV1 | 3.1 ± 0.8 | 51.7 ± 9.5 | 61.9 ± 10.4 | 1.4 ± 0.1 | 36.6 ± 7.2 | 1.9 ± 0.3 | –
2 | CCCCN(CCCC)C(=O)/C=C/C=C/c1ccc2c(c1)OCO2 [Compound 25, (2E,4E)-5-(1,3-Benzodioxol-5-yl)-N,N-dibutyl-2,4-pentadienamide] | little sedation | 15.9 ± 4.9 | 1.3 ± 0.6 | 14.8 ± 1.9 | 2.2 ± 0.3 | 39.8% ± 4.1% | anxiolytic effects | did not activate TRPV1 | 1.8 ± 0.1 | 13.8 ± 1.8 | 17.2 ± 1.4 | 1.7 ± 0.2 | 16 ± 2.7 | 1.8 ± 0.1 | 43.9% ± 4.3%
